Like-named read-outs stand apart in the source and are kept apart here.
Assays:
collagenase (MMP-1) = target: T1, collagenase (MMP-1) (Homo sapiens, UniProt P03956); test: MMP-1 enzyme inhibition assay (coumarin-labelled peptide substrate McaPLGLDpaAR); type: biochemical
T1 sequence (P03956 100-469): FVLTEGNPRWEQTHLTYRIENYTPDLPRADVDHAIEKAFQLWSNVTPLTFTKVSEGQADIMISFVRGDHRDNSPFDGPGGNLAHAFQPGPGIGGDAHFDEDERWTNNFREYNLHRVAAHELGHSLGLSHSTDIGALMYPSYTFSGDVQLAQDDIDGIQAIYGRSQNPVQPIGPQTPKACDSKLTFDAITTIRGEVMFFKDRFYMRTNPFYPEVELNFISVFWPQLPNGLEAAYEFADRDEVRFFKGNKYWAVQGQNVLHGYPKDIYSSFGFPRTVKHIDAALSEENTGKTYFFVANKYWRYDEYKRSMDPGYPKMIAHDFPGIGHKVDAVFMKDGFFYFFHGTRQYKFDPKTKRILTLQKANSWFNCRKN
Procedure: (§1) Stock solutions were made up as follows: Assay Butter: 100 mM Tris-HCl pH 7.6 is containing 100 mM NaCl, 10 mM CaCl2, and 0.05% Brij 35.
(§2) Substrate: 0.4 mM McaPLGLDpaAR (from Bachem) (0.437 mg/ml) stock solution in 100% DMSO (stored at −20° C.). Dilute to 8 μM in assay butter.
(§3) Enzyme: Recombinant human 92 kDa gelatinase (MMP-9; APMA (4-aminophenyl mercuric acetate)-activated if necessary) appropriately diluted in assay butter.
(§4) Test Compounds were prepared initially as 10 mM compound solution in 100% DMSO, diluted to 1 mM in 100% DMSO, then serially diluted 3-fold in 100% DMSO across columns 1-10 of a 96-well microtitre plate Assay concentration range, 100 μM (column 1) to 5.1 nM (column 10).
(§5) The assay was performed in a total volume of 100 μL per well in 96-well microfilm plates. Activated enzyme (20 μL) was added to the wells followed by 20 μL of assay butter. Appropriate concentrations of test compounds dissolved in 10 μL of DMSO were then added followed by 50 μL of McaPLGLDpaAR (8 μM, prepared by dilution of DMSO stock in assay butter). For each as say ten concentrations of test compound were examined in duplicate. Control wells lack either enzyme or test compound. The reactions were incubated at 37° C. for 2 hours. The fluorescence at 405 nm was measured immediately with an SLT Fluostar fluorometer (SL T Labinstruments GmbH, Grödig, Austria) using 320 nm excitation, without stopping the reaction.
(§6) The effect of the test compound was determined from the dose response curve generated by the 10 duplicate concentrations of inhibitor. The IC50 (the concentration of compound required to give a 50% decrease in enzyme activity) was obtained by fitting data to the equation, Y=a+((b−a)/(1+(c/X)^d)). (Y=inhibition achieved for a particular dose; X=the dose in nM; a=minimum y or zero % inhibition; b=maximum y or 100% inhibition; c=is the IC50; d=is the slope). The result was rounded to one significant figure.
(§7) Compounds of the invention were tested for inhibitory activity against collagenase (MMP-1) in an assay using a coumarin-labelled peptide substrate, (7-methoxycoumarin-4-yl)acetyl-Pro-Leu-Gly-Leu-(3-[2,4-dinitrophenyl]-L-2,3diaminopropionyl)-Ala-Arg-NH2 (Mca PLGLDpaAR) (Knight et al, 1992, above). The protocol for this assay was as described for the MMP-9 assay above.

[1] = target: 92 kDa gelatinase (MMP-9) (Homo sapiens, UniProt P14780); test: MMP-9 enzyme inhibition assay (coumarin-labeled peptide substrate McaPLGLDpaAR); type: biochemical
Sequence of 92 kDa gelatinase (MMP-9) (P14780 107-707 limits assumed): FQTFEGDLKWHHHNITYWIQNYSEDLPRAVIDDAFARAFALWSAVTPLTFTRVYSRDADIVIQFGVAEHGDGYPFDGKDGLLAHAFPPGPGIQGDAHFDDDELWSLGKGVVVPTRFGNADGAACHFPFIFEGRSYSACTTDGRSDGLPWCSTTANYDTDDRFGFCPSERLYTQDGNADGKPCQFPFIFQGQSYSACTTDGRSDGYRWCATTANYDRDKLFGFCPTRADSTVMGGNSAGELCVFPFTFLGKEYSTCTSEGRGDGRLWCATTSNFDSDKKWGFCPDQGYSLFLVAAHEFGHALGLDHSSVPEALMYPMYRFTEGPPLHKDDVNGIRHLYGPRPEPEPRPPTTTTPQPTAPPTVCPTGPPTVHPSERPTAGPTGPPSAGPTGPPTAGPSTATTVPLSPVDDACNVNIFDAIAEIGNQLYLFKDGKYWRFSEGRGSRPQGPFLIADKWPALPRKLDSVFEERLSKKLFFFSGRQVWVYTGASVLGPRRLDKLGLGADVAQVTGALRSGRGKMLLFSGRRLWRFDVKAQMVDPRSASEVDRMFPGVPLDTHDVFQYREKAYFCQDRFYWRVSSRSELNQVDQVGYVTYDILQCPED
Procedure: Compounds of the invention were tested for inhibitory activity against 92 kDa gelatinase (MMP-9) in an assay using a coumarin-labeled peptide substrate, (7-methoxycoumarin-4-yl)acetyl-Pro-Leu-Gly-Leu-(3-[2,4-dinitrophenyl]-L-2,3diaminopropionyl)-Ala-Arg-NH2 (McaPLGLDpaAR) (Knight et al, FEBS Lett. 1992; 263-266).
as §1, §2, §3, §4, §5, §6

gelatinase A (MMP-2) = target: T2, gelatinase A (MMP-2) (Homo sapiens, UniProt P08253); test: MMP-2 enzyme inhibition assay (coumarin-labelled peptide substrate McaPLGLDpaAR); type: biochemical
T2 sequence (P08253 110-660): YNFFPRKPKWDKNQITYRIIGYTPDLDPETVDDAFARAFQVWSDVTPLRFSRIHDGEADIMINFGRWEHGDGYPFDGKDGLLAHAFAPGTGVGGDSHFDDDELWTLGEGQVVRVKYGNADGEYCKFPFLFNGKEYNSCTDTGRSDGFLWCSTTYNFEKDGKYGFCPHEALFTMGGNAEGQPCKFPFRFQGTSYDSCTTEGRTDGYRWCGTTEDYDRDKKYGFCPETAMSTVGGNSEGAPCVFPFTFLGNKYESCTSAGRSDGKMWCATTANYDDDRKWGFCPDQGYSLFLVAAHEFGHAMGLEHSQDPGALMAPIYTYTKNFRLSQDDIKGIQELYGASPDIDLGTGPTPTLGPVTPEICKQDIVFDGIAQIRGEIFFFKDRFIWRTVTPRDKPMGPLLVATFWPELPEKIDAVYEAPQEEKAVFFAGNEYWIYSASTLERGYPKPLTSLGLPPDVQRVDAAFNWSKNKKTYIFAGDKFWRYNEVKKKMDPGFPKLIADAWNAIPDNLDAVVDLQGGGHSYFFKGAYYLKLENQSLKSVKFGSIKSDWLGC
Procedure: as §1, §2, §3, §4, §5, §6
as §7, with “gelatinase A (MMP-2)” for “collagenase (MMP-1)”

[2] = system: IL-2-induced peritoneal recruitment of lymphocytes; test: IL-2-induced peritoneal recruitment of lymphocytes; type: in vivo, C3H/HEN mice; conditions: mice, 15 min prior to IL-2, cells collected 24 h after IL-2
Procedure: Administration of IL-2 intraperitoneally causes migration of lymphocytes into the intraperitoneal cavity. This is a model for the cellular migration that occurs during inflammation.
C3H/HEN mice (Elevage Janvier, France) were intraperitoneally injected with IL-2 (Serono Pharmaceutical Research Institute, 20 μg/kg, in saline).
Compounds of the invention were suspended in 0.5% carboxymethylcellulose (CMC)/0.25% tween-20 and were administered by s.c. or p.o. route (10 ml/kg) 15 min prior to administration of IL-2.
Twenty-four hours after administration of IL-2, peritoneal white blood cells were collected by 3 successive lavages of the peritoneal cavity with 5 ml phosphate buffered saline (PBS)-1 mM EDTA (+4° C.). The suspension was centrifuged (1700 g×10 min at +4° C.). The resulting pellet was suspended in 1 ml PBS-1 mM EDTA.
Lymphocytes were identified and counted using a Beckman/Coulter counter.
The animals were divided into 6 groups (6 mice each group):
Group 1: (baseline) received 0.5% CMC/0.25% tween-20 (vehicle of compound of the invention) and saline (vehicle of IL-2);
Group 2: (control IL-2) received 0.5% CMC/0.25% tween-20 and injection of IL-2;
Group 3: Experimental group (Compound of the invention Dose 1) received a compound of the invention and injection of IL-2;
Group 4: Experimental group (Compound of the invention Dose 2) received a compound of the invention and injection of IL-2;
Group 5: Experimental group (Compound of the invention Dose 3) received a compound of the invention and injection of IL-2;
Group 6: Reference group received reference compound dexamethasone and injection of IL-2.
Inhibition of lymphocyte recruitment was calculated as follows:
Where Ly 1=Number of lymphocytes in group 1 (E3/μl), Ly 2=Number of lymphocytes in group 2 (E3/μl), Ly X=Number of lymphocytes in group X (3-5) (E3/μl).

metalloelastase (MMP-12) = metalloelastase (MMP-12) (Homo sapiens, UniProt P39900); test: MMP-12 enzyme inhibition assay (coumarin-labelled peptide substrate McaPLGLDpaAR); type: biochemical
Sequence of metalloelastase (MMP-12) (P39900 106-470): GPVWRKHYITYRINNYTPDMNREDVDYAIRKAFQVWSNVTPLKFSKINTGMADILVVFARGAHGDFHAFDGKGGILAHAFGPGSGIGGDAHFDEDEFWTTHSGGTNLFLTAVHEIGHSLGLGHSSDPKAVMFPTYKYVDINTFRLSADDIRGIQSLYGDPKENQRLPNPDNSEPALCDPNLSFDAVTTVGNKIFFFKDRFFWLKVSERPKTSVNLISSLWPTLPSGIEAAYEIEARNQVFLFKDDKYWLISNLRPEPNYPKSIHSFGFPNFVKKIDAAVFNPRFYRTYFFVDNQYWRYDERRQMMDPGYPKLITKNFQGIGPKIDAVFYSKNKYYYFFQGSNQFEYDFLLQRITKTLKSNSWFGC
Procedure: as §1, §2, §3, §4, §5, §6
Compounds of the invention were tested for inhibitory activity against metalloelastase (MMP-12) in an assay using a coumarin-labelled peptide substrate, (7-methoxycoumarin-4-yl)acetyl-Pro-Leu-Gly-Leu-(3-[2,4-dinitrophenyl]-L-2,3-diaminopropionyl)-Ala-Arg-NH2 (McaPLGLDpaAR) (Knight et al, 1992, above). The protocol for this assay was as described for the MMP-9 assay above.

[3] = Table 1, compounds of Formula (I), read-out: MMP-1 IC50
[4] = Table 1, compounds of Formula (I), read-out: MMP-9 IC50
[5] = Table 1, compounds of Formula (I), read-out: MMP-2 IC50
[6] = dose 1 mg/kg po, Table 3, Formula (I)
[7] = Table 1, compounds of Formula (I), read-out: MMP-12 IC50
[8] = dose 1 mg/kg po, Table 4, Formula (VI)

| SMILES | IC50 (collagenase (MMP-1); [3]) [µM] | IC50 [1, 4] [nM] | IC50 (gelatinase A (MMP-2); [5]) [nM] | % inhibition of IL-2-induced peritoneal recruitment of lymphocytes [2, 6] [%] | IC50 (metalloelastase (MMP-12); [7]) [nM] | % inhibition of IL-2-induced peritoneal recruitment of lymphocytes [2, 8] [%] | also measured |
| --- | --- | --- | --- | --- | --- | --- | --- |
| CC(C)C[C@H](C(=O)N1CCN(c2ccccn2)C[C@H]1C)[C@H](O)C(=O)NO (single isomer, unassigned) [Example 4] | 0.301 | 12 | 4 | 39 | 17 |  |  |
| CC(C)C[C@H](C(=O)N1CCN(c2ccc(-c3ccccc3)cc2)C[C@H]1C)[C@H](O)C(=O)NO [Example 53, (2S,3S)-3-{[(2R)-4-biphenyl-4-yl-2-methylpiperazin-1-yl]carbonyl}-N,2-dihydroxy-5-methylhexanamide] | > 5 | 7 | 7.5 | 61 | 5 |  |  |
| CCOc1ccc(CCC[C@@H](C(=O)N2CCC(Nc3ccccc3)CC2)[C@H](O)C(=O)NO)cc1 [Example 20, (2S,3R)-3-[(4-anilinopiperidin-1-yl)carbonyl]-6(4-ethoxyphenyl)-N,2-dihydroxyhexanamide] |  |  |  |  |  | 38 | IC50 (collagenase (MMP-1)): > 5 µM; IC50 [1]: 37 nM; IC50 (gelatinase A (MMP-2)): 82 nM; IC50 (metalloelastase (MMP-12)): 29 nM |
| CC(C)C[C@H](C(=O)N1CC=C(c2ccccc2)CC1)[C@@H](O)C(=O)NO [Example 61, (2R,3S)-N,2-dihydroxy-5-methyl-3-[(4-phenyl-3,6-dihydropyridin-1(2H)-yl)carbonyl]hexanamide] | > 5 | 48 | 8 | 67 | 2 |  |  |
| CCOc1ccc(CCC[C@@H](C(=O)N2CCN(CCN3CCOCC3)CC2)[C@H](O)C(=O)NO)cc1 [Example 37, (2S,3R)-6-(4-ethoxyphenyl)-N,2-dihydroxy-3-{[4-(2-morpholin-4-ylethyl)piperazin-1-yl]-carbonyl}hexanamide] |  |  |  |  |  | 42 | IC50 (collagenase (MMP-1); Table 2, compounds of Formula (VI), read-out: MMP-1 IC50): > 5 µM; IC50 ([1]; Table 2, compounds of Formula (VI), read-out: MMP-9 IC50): 52 nM; IC50 (gelatinase A (MMP-2); Table 2, compounds of Formula (VI), read-out: MMP-2 IC50): 65 nM; IC50 (metalloelastase (MMP-12); Table 2, compounds of Formula (VI), read-out: MMP-12 IC50): 23 nM |
| CCOc1ccc(CCCC(C(=O)N2CCN(c3ccccn3)C[C@H]2C)[C@H](O)C(=O)NO)cc1 (mixture of isomers) [Example 6, (2S,3S)-6-(4-ethoxyphenyl)-N,2-dihydroxy-3-{[(2R)-2-methyl-4-pyridin-2-ylpiperazin-1-yl]-carbonyl}hexanamide] | > 5 | 22 | 8 | 46 | 20 |  | % inhibition of IL-2-induced peritoneal recruitment of lymphocytes ([2]; dose 3 mg/kg po, Table 3, Formula (I)): 65% |
| CCOc1ccc(CCC[C@@H](C(=O)N2C[C@@H]3C[C@H]2CN3c2ccc(F)cc2)[C@H](O)C(=O)NO)cc1 [Example 47, (2S,3R)-6-(4-ethoxyphenyl)-3-{[(1S,4S)-5-(4-fluorophenyl)-2,5-diazabicyclo[2.2.1]hept-2-yl]carbonyl}-N,2-dihydroxyhexanamide] |  |  |  |  |  | 41 |  |
